{
  "source": "patent US9642835B2",
  "about": "“Modulators of GTPase and use in relevant treatment” (STC.UNM, priority 2010, dated 2017)",
  "key": {"[1]": {"system": "other Rho family GTPases (Rac1, RhoA)", "experiment": "Multiplex dose response with Mg, BODIPY-FL-GTP binding", "conditions": "in the presence of Mg ions", "method": "In experiments including magnesium, six GST-GTPases were assayed simultaneously in a single multiplex (Rac1 wt, Rac1Q61L, RhoA wt, RhoAL63, Cdc42 wt and Cdc42Q61L) and 1 nM BODIPY-FL-GTP binding was measured in the presence or absence of the serial drug dilution series. Each dose response series was run in duplicate."}, "[2]": {"system": "Dbs (guanine nucleotide exchange factor) on Cdc42 wt", "experiment": "Effect on Dbs activity, [3H]GDP/GTP exchange", "type": "biochemical", "conditions": "10 μM", "method": "GSH-beads were coupled with Cdc42 wt, washed and incubated with 10 mM EDTA-NP-HPS for 20 min at 30° C. Nucleotide depleted enzyme washed with NP-HPS, and incubated with 2μCi [^3H]GDP in the presence of 1 mM EDTA (in NP-HPS buffer) for 20 min at 30° C. To prevent the dissociation of tritiated guanine nucleotide from the Cdc42, MgCl2 was added to a final concentration 20 mM. [^3H]GDP-Cdc42-beads washed and re-suspended in GDP exchange buffer (NP-HPS with 1 mM EDTA, 5 mM MgCl2, and 1 mM DTT) and 100 μl aliquots loaded in tubes and incubated with vehicle or 10 μM MLS000693334 for 15 min. Effect of the guanine nucleotide exchange factor domain, Dbs on GDP/GTP exchange in the presence and absence of inhibitor was measured after addition of 200 nM His-DBS (DH/PH domain). The GDP/GTP exchange reaction was initiated by addition of 250 nM GTP and incubation samples for 2 min 30 C. The reaction was stopped by transferring samples on ice. Cdc42-beads collected and washed twice with ice cold GDP exchange buffer and measured radioactivity, by loading samples in scintillation vial."}, "RBL-2H3 cells": {"system": "RBL-2H3 cells", "experiment": "RBL cell morphology, actin and Cdc42 distribution after activation", "type": "cell-based, rat", "conditions": "10 μM", "method": "Live cell microscopy was carried out on RBL-2H3 cells. Cells were grown on coverslips overnight, washed and overlaid with Tyrode's buffer (10 mM Hepes, pH 7.4, 130 mM NaCl, 5 mM KCl, 1.4 mM CaCl2, 1 mM MgCl2, 5.6 mM glucose and 0.1% BSA). Time lapse images were taken after addition of 10 μM MLS000693334 (final concentration) at 60 s intervals for up to 30 min. Activation with Thy-1 cross-linking was performed as described {Surviladze, 1998 #50}. Briefly, RBL cells incubated with OX7 mAb (Santa Cruz Biothechnology) final concentration 50 ug/ml for 1 h at 37 C. The unbound OX7 mAb was washed out with Tyrode's solution and activation initiated by adding anti-mouse IgG (25 ug/ml) (Jackson Immunoresearch Laboratories). Imaging was performed using a Bio-Rad Radiance 2100 confocal microscope equipped with a 60×1.4 NA oil immersion objective equipped with Lasersharp3000 software.\nRBL-2H3 cells were grown in RPMI supplemented with 10% fetal bovine serum on cover slips. Semi-confluent cells were washed with Tyrode's solution and incubated with DMSO (vehicle) or 10 μM MLS000693334 for 1 h at 37° C. Inhibitor treated and un-treated cells were stimulated with 1 μg/ml DNP-BSA for 30 min as previously described {Wilson, 1991 #52}. Activation stopped by transferring of samples on ice. […]"}},
  "data": [
    {"compound": "COc1ccc(C2CC(c3ccccc3)=NN2c2ccc(S(N)(=O)=O)cc2)cc1", "note": "(stereo not shown) [MLS000693334, 4-[3-(4-methoxyphenyl)-5-phenyl-3,4-dihydropyrazol-2-yl]benzenesulfonamide]", "values": [
      {"measurement": "Effect on activity of other Rho family GTPases", "setting": "[1]", "result": "did not affect activity"},
      {"measurement": "Dbs activity (GDP/GTP exchange)", "setting": "[2]", "result": "did not changes Dbs activity"},
      {"measurement": "Filopodia formation and cell spreading after cross-linking of Thy-1", "setting": "RBL-2H3 cells", "result": "dramatically inhibits"},
      {"measurement": "Morphology of resting RBL-2H3 cells", "setting": "RBL-2H3 cells", "result": "no change in morphology"}
    ]}
  ]
}
